14 compounds from US6552062B1, “Indazole derivatives with 5-HT2 receptor activity” (Vernalis Research Limited, priority 1998, dated 2003) can be followed below.

Broadly, the melting point is the temperature of the solid-liquid transition. In general, EC50 refers to the concentration that produces a half-maximal response. As usually defined, the Ki is the dissociation constant of the complex between target and ligand, obtained from inhibition or displacement.

Data set [1] concerns the target T1, human 5-HT2C (Homo sapiens, UniProt P28335).
T1 sequence (P28335 33-458): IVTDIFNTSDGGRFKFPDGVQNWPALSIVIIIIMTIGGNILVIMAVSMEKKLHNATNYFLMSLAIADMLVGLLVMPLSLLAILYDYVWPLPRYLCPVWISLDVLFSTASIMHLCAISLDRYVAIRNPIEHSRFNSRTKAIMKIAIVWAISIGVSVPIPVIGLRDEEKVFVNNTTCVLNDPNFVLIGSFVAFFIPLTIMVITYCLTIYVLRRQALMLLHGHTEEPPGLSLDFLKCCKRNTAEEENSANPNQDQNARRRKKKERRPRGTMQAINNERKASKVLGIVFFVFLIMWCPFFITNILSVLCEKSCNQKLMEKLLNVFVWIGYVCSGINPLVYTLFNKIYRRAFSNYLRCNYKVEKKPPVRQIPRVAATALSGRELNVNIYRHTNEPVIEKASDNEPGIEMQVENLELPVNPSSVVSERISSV
Kind of data set: Functional activity, FLIPR calcium assay, CHO cells expressing human 5-HT2C. The class given is cell-based. More on the design: expressed in transfected cells; host or cells: CHO cells. The settings on record: for EC50: CHO cells, FLIPR, Fluo-3-AM, read-out: h5-HT2C EC50; for Emax: CHO, maximum fluorescent signal relative to 10 μM 5-HT (defined as 100%), read-out: h5-HT2C Relative Efficacy (%). How it is done: (§1) The functional activity of compounds of formula (I) was assayed using a Fluorimetric Imaging Plate reader (FLIPR). CHO cells expressing the human 5-HT2C or human 5-HT2A receptors were counted and plated into standard 96 well microtitre plates on the day before testing to give a confluent monolayer. The cells were then dye loaded with the calcium sensitive dye, Fluo-3-AM. Unincorporated dye was removed using an automated cell washer to leave a total volume of 100 μL/well of assay buffer (Hanks balanced salt solution containing 20 mM Hepes and 2.5 mM probenecid). The drug (dissolved in 50 μL of the assay buffer) was added at a rate of 70 μL/sec to each well of the FLIPR 96 well plate during fluorescence measurements. The measurements were taken at 1 sec intervals and the maximum fluorescent signal was measured (approx 10-15 secs after drug addition) and compared with the response produced by 10 μM 5-HT (defined as 100%) to which it was expressed as a percentage response (relative efficacy). Dose response curves were constructed using Graphpad Prism (Graph Software Inc.).

Data set [2] concerns the target T1, human 5-HT2C. Kind of data set: Binding to 5-HT2C receptor, [3H]-5-HT radioligand, Method (a). More on the design: expressed in transfected cells; host or cells: CHO cell line. The settings on record: 5-HT2C receptors in a CHO cell line, read-out: Method (a) Ki (2C). How it is done:
(§2) The binding of compounds of formula I to serotonin receptors was determined in vitro by standard methods. The preparations were investigated in accordance with the assays given hereinafter.
Method (a): For the binding to the 5-HT2C receptor the 5-HT2C receptors were radiolabeled with [^3H]-5-HT. The affinity of the compounds for 5-HT2C receptors in a CHO cell line was determined according to the procedure of D. Hoyer, G. Engel and H. O. Kalkman, European J Pharmacol., 1985, 118, 13-23.

Data set [3] has as its target T2, human 5-HT2B receptors (Homo sapiens, UniProt P41595).
T2 construct: expressed in transfected cells; host or cells: CHO cell line
Kind of data set: Binding to 5-HT2B receptor, [3H]-5-HT radioligand, Method (b). The settings on record: human 5-HT2B receptors in a CHO cell line, read-out: Method (b) Ki (2B). How it is done: as §2
Method (b): For the binding to the 5-HT2B receptor the 5-HT2B receptors were radiolabeled with [^3H]-5-HT. The affinity of the compounds for human 5-HT2B receptors in a CHO cell line was determined according to the procedure of K. Schmuck, C. Ullmer, P. Engels and H. Lubbert, FEBS Lett., 1994, 342, 85-90.

For data set [4], the target named is T3, human 5-HT2A receptors (Homo sapiens, UniProt P28223).
T3 construct: expressed in transfected cells; host or cells: CHO cells
T3 sequence (P28223 whole entry): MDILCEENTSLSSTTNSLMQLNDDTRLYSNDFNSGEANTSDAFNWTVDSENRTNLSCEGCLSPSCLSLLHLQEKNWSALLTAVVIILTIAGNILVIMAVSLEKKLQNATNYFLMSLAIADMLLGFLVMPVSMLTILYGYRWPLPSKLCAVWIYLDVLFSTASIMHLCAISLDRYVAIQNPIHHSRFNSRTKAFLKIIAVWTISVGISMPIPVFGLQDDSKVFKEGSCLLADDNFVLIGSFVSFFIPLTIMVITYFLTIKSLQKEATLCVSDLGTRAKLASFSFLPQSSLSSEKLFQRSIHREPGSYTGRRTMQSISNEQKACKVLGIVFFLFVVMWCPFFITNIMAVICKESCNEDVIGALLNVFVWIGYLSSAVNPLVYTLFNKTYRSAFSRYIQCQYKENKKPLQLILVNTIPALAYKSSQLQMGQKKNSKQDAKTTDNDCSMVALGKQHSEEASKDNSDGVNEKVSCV
Kind of data set: Functional activity, FLIPR calcium assay, CHO cells expressing human 5-HT2A. It counts as cell-based. The settings on record: for EC50: CHO cells, FLIPR, Fluo-3-AM, read-out: h5-HT2A EC50; for h5-HT2A Relative Efficacy (%): maximum fluorescent signal relative to 10 μM 5-HT (defined as 100%). How it is done:
as §1

Counter-ions that a name gives are not always drawn.

T2 sequence (P41595 whole entry): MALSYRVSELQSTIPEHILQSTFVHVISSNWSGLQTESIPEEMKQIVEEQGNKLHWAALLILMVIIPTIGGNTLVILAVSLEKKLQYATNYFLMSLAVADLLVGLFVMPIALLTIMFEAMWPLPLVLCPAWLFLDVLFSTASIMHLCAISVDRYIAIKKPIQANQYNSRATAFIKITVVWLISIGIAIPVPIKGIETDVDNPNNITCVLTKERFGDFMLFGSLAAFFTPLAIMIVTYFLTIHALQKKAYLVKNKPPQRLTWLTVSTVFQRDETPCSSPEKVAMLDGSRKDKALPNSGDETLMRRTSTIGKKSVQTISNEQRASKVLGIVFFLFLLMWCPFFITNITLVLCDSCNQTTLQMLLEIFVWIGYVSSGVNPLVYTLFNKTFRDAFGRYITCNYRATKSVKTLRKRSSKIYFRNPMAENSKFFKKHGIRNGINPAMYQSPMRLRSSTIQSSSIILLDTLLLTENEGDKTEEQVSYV

`COc1ccc2c(C)nn(C[C@H](C)N)c2c1` (as salt: fumarate) [Example 2, (S)-1-(6-Methoxy-3-methylindazol-1-yl)-2-propylamine Fumarate]: the melting point fell in the range of 180 to 181 °C.

As for `Cc1nn(C[C@H](C)N)c2cc(F)c(F)cc12` (as salt: fumarate) [Example 3, (S)-1-(5,6-Difluoro-3-methylindazol-1-yl)-2-propylamine Fumarate], the melting point was in the range of 160 to 161 °C.

Consider `Cc1nn(C[C@H](C)N)c2cc(Cl)c(F)cc12` (as salt: fumarate) [Example 4, (S)-1-(6-Chloro-5-fluoro-3-methylindazol-1-yl)-2-propylamine Fumarate], for which the melting point was in the range of 158 to 159 °C.

Take `CCc1nn(C[C@H](C)N)c2cc(F)ccc12` (as salt: fumarate) [Example 6, (S)-1-(3-Ethyl-6-fluoroindazol-1-yl)-2-propylamine Fumarate]: the melting point is 143 to 145 °C.

On to `CCc1nn(C[C@H](C)N)c2cc(Br)ccc12` (as salt: fumarate) [Example 7, (S)-1-(6-Bromo-3-ethylindazol-1-yl)-2-propylamine Fumarate], for which the melting point fell in the range of 148 to 150 °C.

Compound `CCc1nn(C[C@H](C)N)c2cc(SC)ccc12` (as salt: fumarate) [Example 8, (S)-1-(3-Ethyl-6-methylthioindazol-1-yl)-2-propylamine Fumarate] came in with a melting point of 147 to 149 °C.

On to `Cc1nn(CC(C)N)c2ccccc12` (racemic) [Example 1, (RS)-1-(3-Methylindazol-1-yl)-2-propylamine Fumarate], for which, in data set [1], the EC50 is 0.96 µM and the Emax amounted to 55%. Besides, in data set [2], the inhibitory constant (Ki) was found to be 0.431 µM. In addition, the inhibition constant (Ki) in data set [3] stood at 0.241 µM.

Consider `COc1ccc2c(C)nn(C[C@H](C)N)c2c1` [Example 2, (S)-1-(6-Methoxy-3-methylindazol-1-yl)-2-propylamine Fumarate], for which, in data set [1], the EC50 came out at 0.044 µM and the Emax came out at 74%. Moreover, in data set [4], the half-maximal effective concentration (EC50) was 0.108 µM and the “h5-HT2A Relative Efficacy (%)” value is given as 59%. Besides, the inhibition constant (Ki) in data set [2] came out at 0.21 µM. In addition, in data set [3], the Ki is 0.135 µM.

`Cc1nn(C[C@H](C)N)c2cc(F)c(F)cc12` [Example 3, (S)-1-(5,6-Difluoro-3-methylindazol-1-yl)-2-propylamine Fumarate]: in data set [1], the EC50 worked out at 0.084 µM and the Emax is 67%. Further, in data set [4], the EC50 is 0.152 µM and the “h5-HT2A Relative Efficacy (%)” value is reported as 50%. The inhibitory constant (Ki) in data set [2] is 0.14 µM. Moreover, the inhibition constant (Ki) in data set [3] is 0.063 µM.

Consider `Cc1nn(C[C@H](C)N)c2cc(Cl)c(F)cc12` [Example 4, (S)-1-(6-Chloro-5-fluoro-3-methylindazol-1-yl)-2-propylamine Fumarate], for which, in data set [1], the concentration giving a half-maximal response (EC50) is 0.048 µM and the Emax turned out to be 76%. Moreover, in data set [4], the 50% effective concentration (EC50) stood at 0.137 µM and the “h5-HT2A Relative Efficacy (%)” value is recorded as 65%. The Ki in data set [2] came to 0.075 µM. The inhibitory constant (Ki) in data set [3] was 0.026 µM.

Regarding `CCc1nn(C[C@H](C)N)c2cc(C(F)(F)F)ccc12` [Example 5, (S)-1-(3-Ethyl-6-trifluoromethylindazol-1-yl)-2-propylamine Fumarate], in data set [1], the concentration for a half-maximal effect (EC50) amounted to 0.877 µM and the Emax worked out at 73%.

With `CCc1nn(C[C@H](C)N)c2cc(F)ccc12` [Example 6, (S)-1-(3-Ethyl-6-fluoroindazol-1-yl)-2-propylamine Fumarate], in data set [1], the EC50 turned out to be 0.052 µM and the Emax amounted to 47%. In data set [4], the EC50 amounted to 0.288 µM and the “h5-HT2A Relative Efficacy (%)” value was determined as 32%.

As for `CCc1nn(C[C@H](C)N)c2cc(Br)ccc12` [Example 7, (S)-1-(6-Bromo-3-ethylindazol-1-yl)-2-propylamine Fumarate], in data set [1], the concentration giving a half-maximal response (EC50) is 0.088 µM and the Emax worked out at 69%. Further, in data set [4], the half-maximal effective concentration (EC50) amounted to 0.739 µM and the “h5-HT2A Relative Efficacy (%)” value stood at 39%.

Take `CCc1nn(C[C@H](C)N)c2cc(SC)ccc12` [Example 8, (S)-1-(3-Ethyl-6-methylthioindazol-1-yl)-2-propylamine Fumarate]: the 50% effective concentration (EC50) in data set [1] was 0.008 µM; in data set [4], 0.285 µM. Moreover, in data set [1], the Emax stood at 81%. Moreover, the “h5-HT2A Relative Efficacy (%)” value in data set [4] stood at 48%. For the same compound, the Ki stood at 0.037 µM in data set [2] and 0.047 µM in data set [3].
